System: B16 cells gene expression
Test: RNA-Seq (DEGs, GSEA, heatmaps) of B16 cells
Details: B16 cells, KTC 0.2μM

COc1cc(N)cc2c1nc(C(F)F)n2-c1nc(N2CCCOCC2)nc(N2CCOCC2)n1 [KTC1101, 2-(difluoromethyl)-4-methoxy-1-(4-morpholino-6-(1,4-oxazepan-4-yl)-1,3,5-triazin-2-yl)-1H-benzo[d]imidazol-6-amine]
NES: Platinum drug resistance (GSEA KEGG mmu01524): -1.706 | enrichmentScore: Platinum drug resistance (GSEA KEGG mmu01524): -0.4321 | NES: Ribosome (GSEA KEGG mmu03010): 2.0791 | enrichmentScore: Ribosome (GSEA KEGG mmu03010): 0.5599 | NES: Nucleocytoplasmic transport (GSEA KEGG mmu03013): -1.168 | enrichmentScore: Nucleocytoplasmic transport (GSEA KEGG mmu03013): -0.2706 | NES: DNA replication (GSEA KEGG mmu03030): -1.22 | enrichmentScore: DNA replication (GSEA KEGG mmu03030): -0.374 | NES: Proteasome (GSEA KEGG mmu03050): -1.869 | enrichmentScore: Proteasome (GSEA KEGG mmu03050): -0.5072 | NES: PPAR signaling pathway (GSEA KEGG mmu03320): -1.414 | enrichmentScore: PPAR signaling pathway (GSEA KEGG mmu03320): -0.3831 | NES: Homologous recombination (GSEA KEGG mmu03440): -1.259 | enrichmentScore: Homologous recombination (GSEA KEGG mmu03440): -0.3597 | NES: MAPK signaling pathway (GSEA KEGG mmu04010): 1.18 | enrichmentScore: MAPK signaling pathway (GSEA KEGG mmu04010): 0.3038 | NES: ErbB signaling pathway (GSEA KEGG mmu04012): 1.235 | enrichmentScore: ErbB signaling pathway (GSEA KEGG mmu04012): 0.3633 | NES: Rap1 signaling pathway (GSEA KEGG mmu04015): 1.294 | enrichmentScore: Rap1 signaling pathway (GSEA KEGG mmu04015): 0.3507 | NES: Calcium signaling pathway (GSEA KEGG mmu04020): 1.795 | enrichmentScore: Calcium signaling pathway (GSEA KEGG mmu04020): 0.4973 | NES: cGMP-PKG signaling pathway (GSEA KEGG mmu04022): 1.703 | enrichmentScore: cGMP-PKG signaling pathway (GSEA KEGG mmu04022): 0.4759 | NES: cAMP signaling pathway (GSEA KEGG mmu04024): 1.563 | enrichmentScore: cAMP signaling pathway (GSEA KEGG mmu04024): 0.4327 | NES: Cytokine-cytokine receptor interaction (GSEA KEGG mmu04060): 1.941 | enrichmentScore: Cytokine-cytokine receptor interaction (GSEA KEGG mmu04060): 0.59 | NES: Viral protein interaction with cytokine and cytokine receptor (GSEA KEGG mmu04061): 2.1 | enrichmentScore: Viral protein interaction with cytokine and cytokine receptor (GSEA KEGG mmu04061): 0.7876 | NES: Chemokine signaling pathway (GSEA KEGG mmu04062): 1.837 | enrichmentScore: Chemokine signaling pathway (GSEA KEGG mmu04062): 0.514 | NES: NF-kappa B signaling pathway (GSEA KEGG mmu04064): 1.257 | enrichmentScore: NF-kappa B signaling pathway (GSEA KEGG mmu04064): 0.3844 | NES: HIF-1 signaling pathway (GSEA KEGG mmu04066): -1.602 | enrichmentScore: HIF-1 signaling pathway (GSEA KEGG mmu04066): -0.3782 | NES: Phospholipase D signaling pathway (GSEA KEGG mmu04072): 1.435 | enrichmentScore: Phospholipase D signaling pathway (GSEA KEGG mmu04072): 0.4011 | NES: Neuroactive ligand-receptor interaction (GSEA KEGG mmu04080): 1.734 | enrichmentScore: Neuroactive ligand-receptor interaction (GSEA KEGG mmu04080): 0.5578 | NES: Cell cycle (GSEA KEGG mmu04110): -1.229 | enrichmentScore: Cell cycle (GSEA KEGG mmu04110): -0.265 | NES: Oocyte meiosis (GSEA KEGG mmu04114): -1.291 | enrichmentScore: Oocyte meiosis (GSEA KEGG mmu04114): -0.2991 | NES: Protein processing in endoplasmic reticulum (GSEA KEGG mmu04141): -1.222 | enrichmentScore: Protein processing in endoplasmic reticulum (GSEA KEGG mmu04141): -0.2637 | NES: Lysosome (GSEA KEGG mmu04142): -1.281 | enrichmentScore: Lysosome (GSEA KEGG mmu04142): -0.2917 | NES: Phagosome (GSEA KEGG mmu04145): -1.483 | enrichmentScore: Phagosome (GSEA KEGG mmu04145): -0.3503 | NES: PI3K-Akt signaling pathway (GSEA KEGG mmu04151): 1.456 | enrichmentScore: PI3K-Akt signaling pathway (GSEA KEGG mmu04151): 0.3693 | NES: Cellular senescence (GSEA KEGG mmu04218): 1.209 | enrichmentScore: Cellular senescence (GSEA KEGG mmu04218): 0.3231 | NES: Cardiac muscle contraction (GSEA KEGG mmu04260): 1.313 | enrichmentScore: Cardiac muscle contraction (GSEA KEGG mmu04260): 0.4187 | NES: Adrenergic signaling in cardiomyocytes (GSEA KEGG mmu04261): 1.264 | enrichmentScore: Adrenergic signaling in cardiomyocytes (GSEA KEGG mmu04261): 0.3566 | NES: Wnt signaling pathway (GSEA KEGG mmu04310): 1.195 | enrichmentScore: Wnt signaling pathway (GSEA KEGG mmu04310): 0.334 | NES: Notch signaling pathway (GSEA KEGG mmu04330): 1.378 | enrichmentScore: Notch signaling pathway (GSEA KEGG mmu04330): 0.4468 | NES: Hedgehog signaling pathway (GSEA KEGG mmu04340): -1.456 | enrichmentScore: Hedgehog signaling pathway (GSEA KEGG mmu04340): -0.4001 | NES: TGF-beta signaling pathway (GSEA KEGG mmu04350): 1.497 | enrichmentScore: TGF-beta signaling pathway (GSEA KEGG mmu04350): 0.4579 | NES: VEGF signaling pathway (GSEA KEGG mmu04370): -1.413 | enrichmentScore: VEGF signaling pathway (GSEA KEGG mmu04370): -0.3829 | NES: Apelin signaling pathway (GSEA KEGG mmu04371): 1.504 | enrichmentScore: Apelin signaling pathway (GSEA KEGG mmu04371): 0.4209 | NES: Osteoclast differentiation (GSEA KEGG mmu04380): 1.356 | enrichmentScore: Osteoclast differentiation (GSEA KEGG mmu04380): 0.3943 | NES: Hippo signaling pathway (GSEA KEGG mmu04390): 1.527 | enrichmentScore: Hippo signaling pathway (GSEA KEGG mmu04390): 0.4244 | NES: Focal adhesion (GSEA KEGG mmu04510): 1.45 | enrichmentScore: Focal adhesion (GSEA KEGG mmu04510): 0.3877 | NES: ECM-receptor interaction (GSEA KEGG mmu04512): 1.51 | enrichmentScore: ECM-receptor interaction (GSEA KEGG mmu04512): 0.4857 | NES: Gap junction (GSEA KEGG mmu04540): 1.307 | enrichmentScore: Gap junction (GSEA KEGG mmu04540): 0.3903 | NES: Complement and coagulation cascades (GSEA KEGG mmu04610): 1.788 | enrichmentScore: Complement and coagulation cascades (GSEA KEGG mmu04610): 0.6389 | NES: Neutrophil extracellular trap formation (GSEA KEGG mmu04613): 1.259 | enrichmentScore: Neutrophil extracellular trap formation (GSEA KEGG mmu04613): 0.3655 | NES: Toll-like receptor signaling pathway (GSEA KEGG mmu04620): 1.2254 | enrichmentScore: Toll-like receptor signaling pathway (GSEA KEGG mmu04620): 0.3682 | NES: NOD-like receptor signaling pathway (GSEA KEGG mmu04621): 1.434 | enrichmentScore: NOD-like receptor signaling pathway (GSEA KEGG mmu04621): 0.4008 | NES: C-type lectin receptor signaling pathway (GSEA KEGG mmu04625): 1.433 | enrichmentScore: C-type lectin receptor signaling pathway (GSEA KEGG mmu04625): 0.4281 | NES: JAK-STAT signaling pathway (GSEA KEGG mmu04630): 1.466 | enrichmentScore: JAK-STAT signaling pathway (GSEA KEGG mmu04630): 0.4286 | NES: Hematopoietic cell lineage (GSEA KEGG mmu04640): 1.336 | enrichmentScore: Hematopoietic cell lineage (GSEA KEGG mmu04640): 0.501 | NES: IL-17 signaling pathway (GSEA KEGG mmu04657): 1.494 | enrichmentScore: IL-17 signaling pathway (GSEA KEGG mmu04657): 0.4654 | NES: Th17 cell differentiation (GSEA KEGG mmu04659): 1.198 | enrichmentScore: Th17 cell differentiation (GSEA KEGG mmu04659): 0.3665 | NES: Fc epsilon RI signaling pathway (GSEA KEGG mmu04664): -1.329 | enrichmentScore: Fc epsilon RI signaling pathway (GSEA KEGG mmu04664): -0.3636 | NES: TNF signaling pathway (GSEA KEGG mmu04668): 1.66 | enrichmentScore: TNF signaling pathway (GSEA KEGG mmu04668): 0.4756 | NES: Circadian rhythm (GSEA KEGG mmu04710): -1.714 | enrichmentScore: Circadian rhythm (GSEA KEGG mmu04710): -0.5347 | NES: Circadian entrainment (GSEA KEGG mmu04713): 1.598 | enrichmentScore: Circadian entrainment (GSEA KEGG mmu04713): 0.4957 | NES: Synaptic vesicle cycle (GSEA KEGG mmu04721): -1.378 | enrichmentScore: Synaptic vesicle cycle (GSEA KEGG mmu04721): -0.3771 | NES: Neurotrophin signaling pathway (GSEA KEGG mmu04722): 1.347 | enrichmentScore: Neurotrophin signaling pathway (GSEA KEGG mmu04722): 0.3745 | NES: Glutamatergic synapse (GSEA KEGG mmu04724): 1.249 | enrichmentScore: Glutamatergic synapse (GSEA KEGG mmu04724): 0.3819 | NES: Cholinergic synapse (GSEA KEGG mmu04725): 1.403 | enrichmentScore: Cholinergic synapse (GSEA KEGG mmu04725): 0.4174 | NES: Olfactory transduction (GSEA KEGG mmu04740): 1.83 | enrichmentScore: Olfactory transduction (GSEA KEGG mmu04740): 0.66 | NES: Taste transduction (GSEA KEGG mmu04742): 1.885 | enrichmentScore: Taste transduction (GSEA KEGG mmu04742): 0.7021 | NES: Regulation of actin cytoskeleton (GSEA KEGG mmu04810): 1.182 | enrichmentScore: Regulation of actin cytoskeleton (GSEA KEGG mmu04810): 0.312 | NES: Motor proteins (GSEA KEGG mmu04814): -1.623 | enrichmentScore: Motor proteins (GSEA KEGG mmu04814): -0.3694 | NES: Insulin secretion (GSEA KEGG mmu04911): 1.364 | enrichmentScore: Insulin secretion (GSEA KEGG mmu04911): 0.4349 | NES: Ovarian steroidogenesis (GSEA KEGG mmu04913): 1.397 | enrichmentScore: Ovarian steroidogenesis (GSEA KEGG mmu04913): 0.499 | NES: Progesterone-mediated oocyte maturation (GSEA KEGG mmu04914): -1.352 | enrichmentScore: Progesterone-mediated oocyte maturation (GSEA KEGG mmu04914): -0.3392 | NES: Thyroid hormone synthesis (GSEA KEGG mmu04918): 1.21 | enrichmentScore: Thyroid hormone synthesis (GSEA KEGG mmu04918): 0.3822 | NES: Thyroid hormone signaling pathway (GSEA KEGG mmu04919): -1.193 | enrichmentScore: Thyroid hormone signaling pathway (GSEA KEGG mmu04919): -0.278 | NES: Oxytocin signaling pathway (GSEA KEGG mmu04921): 1.2549 | enrichmentScore: Oxytocin signaling pathway (GSEA KEGG mmu04921): 0.3525 | NES: Glucagon signaling pathway (GSEA KEGG mmu04922): -1.435 | enrichmentScore: Glucagon signaling pathway (GSEA KEGG mmu04922): -0.3522 | NES: Regulation of lipolysis in adipocytes (GSEA KEGG mmu04923): 1.37 | enrichmentScore: Regulation of lipolysis in adipocytes (GSEA KEGG mmu04923): 0.4649 | NES: Renin secretion (GSEA KEGG mmu04924): 1.644 | enrichmentScore: Renin secretion (GSEA KEGG mmu04924): 0.5567 | NES: Aldosterone synthesis and secretion (GSEA KEGG mmu04925): 1.273 | enrichmentScore: Aldosterone synthesis and secretion (GSEA KEGG mmu04925): 0.3803 | NES: Relaxin signaling pathway (GSEA KEGG mmu04926): 1.257 | enrichmentScore: Relaxin signaling pathway (GSEA KEGG mmu04926): 0.3545 | NES: Cortisol synthesis and secretion (GSEA KEGG mmu04927): 1.396 | enrichmentScore: Cortisol synthesis and secretion (GSEA KEGG mmu04927): 0.4573 | NES: Parathyroid hormone synthesis, secretion and action (GSEA KEGG mmu04928): 1.74 | enrichmentScore: Parathyroid hormone synthesis, secretion and action (GSEA KEGG mmu04928): 0.5119 | NES: Insulin resistance (GSEA KEGG mmu04931): -1.682 | enrichmentScore: Insulin resistance (GSEA KEGG mmu04931): -0.394 | NES: AGE-RAGE signaling pathway in diabetic complications (GSEA KEGG mmu04933): 1.385 | enrichmentScore: AGE-RAGE signaling pathway in diabetic complications (GSEA KEGG mmu04933): 0.4005 | NES: Growth hormone synthesis, secretion and action (GSEA KEGG mmu04935): 1.209 | enrichmentScore: Growth hormone synthesis, secretion and action (GSEA KEGG mmu04935): 0.3459 | NES: Collecting duct acid secretion (GSEA KEGG mmu04966): -1.6527 | enrichmentScore: Collecting duct acid secretion (GSEA KEGG mmu04966): -0.5648 | NES: Gastric acid secretion (GSEA KEGG mmu04971): 1.497 | enrichmentScore: Gastric acid secretion (GSEA KEGG mmu04971): 0.4728 | NES: Carbohydrate digestion and absorption (GSEA KEGG mmu04973): 1.258 | enrichmentScore: Carbohydrate digestion and absorption (GSEA KEGG mmu04973): 0.4436 | NES: Protein digestion and absorption (GSEA KEGG mmu04974): 1.8879 | enrichmentScore: Protein digestion and absorption (GSEA KEGG mmu04974): 0.6074

Source: PMC10938783, “A novel pan-PI3K inhibitor KTC1101 synergizes with anti-PD-1 therapy by targeting tumor suppression and immune activation” (Molecular Cancer, 2024)
